The values that follow come from US12509439B2, “Anti-malarial agents” (UNIVERSITY OF KENTUCKY RESEARCH FOUNDATION, priority 2020, dated 2025).

Structures are written as SMILES.

The nature of data set [1]: Microsomal intrinsic clearance, mouse liver microsomes. In kind it is in vitro ADME. The note with it: mouse liver microsomes (pooled), pH 7.4, 45 min, NADPH. As to the method:
(§1) The compounds of the invention (1 μM) were incubated in suspension with human (rat or mouse) liver microsomes pooled from multiple donors (>10) and samples taken at 5 time points over the course of a 45 min experiment and analysed by LC MS/MS. Microsomes (final protein concentration 0.5 mg/mL), 0.1 M phosphate buffer pH 7.4 and test compound (final substrate concentration 1 μM; final DMSO concentration 0.25%) were pre-incubated at 37° C. prior to the addition of NADPH (final concentration 1 mM) to initiate the reaction. A minus cofactor control incubation was included for each compound tested where 0.1 M phosphate buffer pH 7.4 is added instead of NADPH (minus NADPH). All incubations were performed in duplicate for each test compound and the results averaged. Each compound is incubated for 0, 5, 15, 30 and 45 min. The control (minus NADPH) was incubated for 45 min only. The reactions were stopped by transferring incubate into acetonitrile at the appropriate time points, in a 1:3 ratio.
(§2) The termination plates were centrifuged at 3,000 rpm for 20 min at 4° C. to precipitate the protein. Following protein precipitation, the sample supernatants were combined in cassettes of up to 4 compounds, internal standard added and samples analysed by LC-MS/MS. From a plot of ln peak area ratio (compound peak area/internal standard peak area) against time, the gradient of the line is determined. Subsequently, half-life (t½) and intrinsic clearance (CLint) are calculated using the equations below: Elimination rate constant (k)=(−gradient) Half-life (t1/2)(min)=0.693/k Intrinsic clearance (i.e. CLint)(μL/min/mg protein)=V×0.693/t1/2 where V=Incubation volume (μL)/Microsomal protein (mg)
(§3) Verapamil and dextromethorphan were included in the assay as controls and if the values for these compounds were not within the specified limits the results were rejected and the experiment repeated.
A general note: Liver microsomes are vesicles of endoplasmic reticulum, rich in cytochrome P450 enzymes.

Data set [2] has as its system Plasmodium falciparum (3D7). The data set can be described thus: In-vitro potency against P. falciparum (3D7 strain), SYBR Green growth inhibition. In kind it is cell-based. The note with it: P. falciparum 3D7, asexual intraerythrocytic stage, SYBR Green fluorescence. As for the experimental part:
Cultures of the widely-used malaria reference strain of chloroquine-sensitive Plasmodium falciparum (3D7) were maintained in a 1.25% suspension of human red blood cells cultured in RPMI 1640 medium (pH 7.3) supplemented with 0.5% Albumax II (Gibco Life Technologies, San Diego, CA), 12 mM sodium bicarbonate, 0.2 mM hypoxanthine, and 20 mg/L gentamicin at 37° C., in an atmosphere of 1% O2, 3% CO2 with a balance of nitrogen (Human malaria parasites in continuous culture. Trager W et al., 1976, Science, 193: 673-675). Growth inhibition was quantified using a fluorescence assay utilising the binding of SYBR Green (Novel, rapid, and inexpensive cell-based quantification of antimalarial drug efficacy. Bennett T. N. et al., 2004, Antimicrob. Agents Chemother., 48: 1807-1810) to double stranded DNA, which emits a fluorescent signal at 528 nm after excitation at 485 nm. Mefloquine was used as a drug control to monitor the quality of the assay (Z′=0.6 to 0.8, where Z′ is a measure of the discrimination between the positive and negative controls on a screen plate). Hits were confirmed by full-potency curves with dose-response curves determined from a minimum of 3 independent experiments. Compound bioactivity was expressed as EC50, the effective concentration of compound causing 50% parasite death. All data were processed using IDBS ActivityBase. Raw data was converted into percent inhibition through linear regression by setting the high inhibition control as 100% and the no inhibition control as 0%. Quality control criteria for passing plates were as follows: z′>0.5, S:B>3, % CV(no inhibition control)<15. The formula used to calculate z′ is
Curve fitting was carried out using the following 4 parametric equation:
where A=% inhibition at bottom, B=% inhibition at top, C=EC50, D=slope, x=inhibitor concentration and y=% inhibition. If curve definition was poor, B was fixed to 100.

The nature of data set [3]: Microsomal intrinsic clearance, human liver microsomes. The data set is classed as in vitro ADME. The note with it: human liver microsomes (pooled), pH 7.4, 45 min, NADPH. As for the experimental part: as §1, §2, §3
Data set [4] can be described thus: PK parameters in mouse (IV and PO). The note with it: for PK parameters (mouse): F: 10 mg/kg IV and 10 mg/kg PO; for clearance / half-life: male, Swiss Albino, plasma, IV arm, 10 mg/kg; for clearance: read-out: PK parameters (mouse): Cl; for half-life: read-out: PK parameters (mouse): t1/2. The data set is classed as in vivo. As for the experimental part:
Swiss Albino male mice or Sprague Dawley rats (TCGLS, India) were kept under a 12/12 h light/dark cycle, 22±2° C. temp, 50±20% RH with free access to food and water ad libitum. Mice were selected randomly/based on body weight/age and fasted for 4 h before dosing and until 2 h after dosing. Three mice were used per route of administration. […]
Blood samples were taken (mice 50 μL, rat 100 μL) at regular timepoints from the saphenous vein (conscious restrained animals) and collected into heparinized capillary tubes and transferred into 0.5 mL microcentrifuge tubes. Samples were processed by centrifugation at 1640 g for 10 min at +4° C. within 30 min of collection and stored at −20° C. until bioanalysis. All samples were mixed with ice-cold acetonitrile containing an internal standard, centrifuged at 4000 rpm for 15 min at 15° C. Supernatant was then half diluted in water and analysed by LCMS/MS analysis to determine analyte peak area/IS peak area (the ratio). Concentration (plasma) of the compounds of the invention was determined by reference to a calibration curve. Pharmacokinetic parameters (Cmax, Tmax, AUC, t1/2, CL, Vd, BA) were calculated using WinNonLin, using non-compartmental analysis (Phoenix, Version 6.3). The pharmacokinetic parameters for compounds shown in Table 2 support that compounds of the invention have pharmacokinetic properties associated with treatment of malaria via the oral route and that compounds have substantially longer half-lives than the reference compound.

Data set [5] in a line: Hepatocyte intrinsic clearance, cryopreserved human hepatocytes. The data set is classed as in vitro ADME. The note with it: cryopreserved human hepatocytes in suspension (pooled), 60 min. As to the method: The compounds of the invention (3 μM) were incubated in suspension with cryopreserved human (rat or mouse) hepatocytes pooled from multiple donors (>10) and samples taken at 6 time points over the course of a 60 min experiment and analysed by LC MS/MS. Williams E media supplemented with 2 mM L-glutamine and 25 mM HEPES and test compound (final substrate concentration 3 μM; final DMSO concentration 0.25%) were pre-incubated at 37° C. prior to the addition of a suspension of cryopreserved hepatocytes (final cell density 0.5×10^6 viable cells/mL in Williams E media supplemented with 2 mM L glutamine and 25 mM HEPES) to initiate the reaction. The final incubation volume is 500 μL. The reactions are stopped by transferring aliquots of incubate into acetonitrile at the appropriate time points, in a 1:2 ratio. The termination plates are centrifuged at 3,000 rpm for 20 min at 4° C. to precipitate the protein. Following protein precipitation, the sample supernatants were combined in cassettes of up to 4 compounds, internal standard was added and analysed by LC MS/MS. From a plot of ln peak area ratio (compound peak area/internal standard peak area) against time, the gradient of the line was determined. Subsequently, half-life (t½) and intrinsic clearance (CLint) were calculated using the equations below: Elimination rate constant (k)=(−gradient) Half-life (t½) (min)=0.693/k Intrinsic clearance (i.e. CLint) (μL/min/million cells)=V×0.693/t1/2
where V=Incubation volume (μL)/Number of cells
Verapamil and umbelliferone were included in the assay as controls and if the values for these compounds are not within the specified limits the results were rejected and the experiment repeated.

`N#Cc1cc(NC(=O)[C@H]2c3ccccc3C(=O)N(CC(F)(F)F)[C@@H]2c2ccc(OC3CC3)nc2)ccc1F` (single isomer, unassigned) [(1a)]: the microsomal CLint (in general, the capacity of the preparation to metabolise the compound, expressed as a volume cleared per time) at 1 μM in data set [1] was below 10 µL/min/mg. In data set [2], a half-maximal response (EC50) required 19 nM. In data set [3], this compound yielded a microsomal CLint at 1 μM below 3 µL/min/mg. Further, in data set [4], the “PK parameters (mouse): F” value was “F = 79%”, the clearance turned out to be 2.17 mL/min/kg and the half-life was 17 h. Moreover, the intrinsic metabolic clearance (hepatocyte CLint) (as a rule, the rate of metabolic loss divided by the concentration) at 3 μM in data set [5] was below 3 µL/min/1e6 cells.
The compound `N#Cc1cc(NC(=O)[C@H]2c3ccccc3C(=O)N(CC(F)(F)F)[C@@H]2c2cnc(C(F)(F)F)nc2)ccc1F` [(9a), (3S,4S)—N-(3-cyano-4-fluorophenyl)-1-oxo-2-(2,2,2-trifluoroethyl)-3-(2-(trifluoromethyl)pyrimidin-5-yl)-1,2,3,4-tetrahydroisoquinoline-4-carboxamide] yielded an intrinsic clearance (microsomal CLint) at 1 μM in data set [1] of 10.1 µL/min/mg. In data set [2], the EC50 (usually the midpoint of the concentration-response curve) came to 103 nM. In data set [3], the microsomal CLint at 1 μM is below 3 µL/min/mg. For the same compound, in data set [4], the “PK parameters (mouse): F” value is “F = 92%”, the clearance was found to be 3.17 mL/min/kg and the half-life was found to be 14 h. The same compound came in with a hepatocyte CLint at 3 μM in data set [5] below 3 µL/min/1e6 cells.
Compound `N#Cc1cc(NC(=O)[C@H]2c3ccccc3C(=O)N(CC(F)(F)F)[C@@H]2c2cccnc2)ccc1F` [(+) SJ-733, 4-Isoquinolinecarboxamide, N-(3-cyano-4-fluorophenyl)-1,2,3,4-tetrahydro-1-oxo-3-(3-pyridinyl)-2-(2,2,2-trifluoroethyl)-, (3S,4S)-, reference compound] yielded a microsomal CLint at 1 μM in data set [1] of 37 µL/min/mg. In data set [2], the EC50 is 145 nM. Also, in data set [3], the microsomal CLint at 1 μM was 140 µL/min/mg. Also, in data set [4], the “PK parameters (mouse): F” value was “F = 66%”, the clearance was 70 mL/min/kg and the half-life is 1.1 h. In addition, the hepatocyte CLint at 3 μM in data set [5] came out at 11.4 µL/min/1e6 cells.
